Laboratory results as given in US11260108B2, “MIC-1 and GLP-1 for use in the treatment of obesity” (Novo Nordisk A/S, priority 2017, dated 2022).

Test system: male obese Sprague Dawley rats
Assay: Body weight lowering in obese rat, MIC-1-HSA in combination with semaglutide (Example 2)
Format: in vivo
From the text: The purpose of the study in example 2 was to investigate effects of a MIC-1-HSA compound in combination with the GLP-1 compound semaglutide on body weight lowering in obese rat.
60 male obese Sprague Dawley rats from Taconic were used. Animals where housed 2 per cage and had ad libitum access to high-fat diet (45 kcal % fat, Research Diets Inc, diet 12451). Mean starting body weight was 736.0 g (634.7-982.4 g). Animals were randomised into 6 groups based on body weight (n=10). Animals were housed in reversed light cycle (dark 11:00-23:00). Vehicle and semaglutide were dosed subcutaneously (SC) once daily (QD) for the duration of the study (study day 0-26) at 10 am. Because of the immunogenic properties of MIC-1-HSA in rodents, the dosing period with MIC-1-HSA was limited to 12 days. MIC-1-HSA was dosed SC every other day, starting at study day 15 and ending at day 26. The two compounds were in all cases dosed individually and were not administrated in the same formulation using the same syringe.
Due to a long in vivo terminal half-life of MIC-1 HSA (˜50 hrs in lean rat) animals were dosed with a bolus dose at day 15 and subsequent doses of MIC-1-HSA were reduced to compensate for the protracted half-life to achieve a stable plasma exposure during the study. […] Dose volume was adjusted to daily body weight. Please see table 3.
The dose of Semaglutide was 2 nmol/kg and was selected in order to achieve a therapeutic relevant pharmaco-dynamic effect.
From day −1 and during the entire dosing period until day 26, body weight was monitored daily prior to dosing.
The dosing was performed using insulin syringe and a dosing volume of 1 ml/kg (2.3 ml/kg for bolus dose of MIC-1-HSA).
In table 4 are shown pharmacodynamic effects expressed as changes in body weights of obese rats in response to the 6 treatment arms. Data are expressed as the average values as grams (A) and as percentages (B). “Delta 0-26” is the change in body weight from day 0 to day 26. “vs vehicle” is the change in body weight at day 26 in comparison with the vehicle group at day 26. “Predicted” is the expected change in body weight based on body weight changes in the associated MIC-1-HSA and semaglutide mono-therapy arms. “Synergy” expresses the unexpected and additional effect beyond the predicted effect of the MIC-1-HSA and semaglutide combination. This value is calculated by subtracting the predicted value from the actual effect of the combination (vs vehicle). A negative synergy value reflects an additional unexpected synergistic body weight lowering effect.

[1] = Sema 2 nmol/kg, change day 0 to day 26
[2] = Sema 2 nmol/kg, day 26 vs vehicle group

What does the source list for “N6.26-{18-[N-(17-carboxyheptadecanoyl)-L-γ-glutamyl]-10-oxo-3,6,12,15-tetraoxa-9,18-diazaoctadecanoyl}-[8-(2-amino-2-propanoic acid),34-L-arginine]human glucagon-like peptide 1(7-37) [Sema]”?
Body weight [% of study start] Study end (Sema 2 nmol/kg SC QD day 0-26): 95 % of study start; Body weight [gram] Study end (Sema 2 nmol/kg SC QD day 0-26): 746 gram; Body weight [% of study start] Delta 0-26 [1]: −5.4 % of study start; Body weight [gram] Delta 0-26 [1]: −41.8 gram; Body weight [% of study start] vs vehicle [2]: −8.0 % of study start; Body weight [gram] vs vehicle [2]: −62.2 gram; reduced body weight compared to vehicle (semaglutide monotherapy 2 nmol/kg, day 26): 8.0%
